Laboratory results: ChEMBL document CHEMBL1201862, “PubChem BioAssay data set” (2004)
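48-hour exposure; five concentrations; linearly interpolated endpoints. GI50 marks 50% less growth.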 Activity calls are given as the source filed them. Cut-off read from the data, not from the text of the source: active = GI50 up to about 1.1 µM and inactive = higher. Where a SMILES comes first, the peptide text is derived from it. [ ]: non-standard residue; d: D form. The star is where a group is joined. Cbz = O=C(OCc1ccccc1)*; Aib = CC(C)(N)C(=O)O; OBn = c1ccc(CO*)cc1

Assays:
Test in all cases: NCI anticancer screen, dose series, 48 h
786-0 = system: 786-0
HOP-92 = system: HOP-92
MCF7 = system: MCF7
MDA-MB-435 = system: MDA-MB-435
MDA-N = system: MDA-N
MOLT-4 = system: MOLT-4
OVCAR-8 = system: OVCAR-8
SF-295 = system: SF-295
SF-539 = system: SF-539
SK-MEL-2 = system: SK-MEL-2
SK-MEL-5 = system: SK-MEL-5
SK-OV-3 = system: SK-OV-3
SN12C = system: SN12C
SNB-75 = system: SNB-75
T47D = system: T47D
UACC-62 = system: UACC-62
UO-31 = system: UO-31
COLO 205 = system: COLO 205
IGROV-1 = system: IGROV-1
HL-60 = system: HL-60

Compound | GI50 (786-0) | GI50 (HOP-92) | GI50 (MCF7) | GI50 (MDA-MB-435) | GI50 (MDA-N) | GI50 (MOLT-4) | GI50 (OVCAR-8) | GI50 (SF-295) | GI50 (SF-539) | GI50 (SK-MEL-2) | GI50 (SK-MEL-5) | GI50 (SK-OV-3) | GI50 (SN12C) | GI50 (SNB-75) | GI50 (T47D) | GI50 (UACC-62) | GI50 (UO-31) | GI50 (COLO 205) | GI50 (IGROV-1) | GI50 (HL-60)
CC1=C(C#N)S(=O)(=O)c2c(oc(C)c2C)N1 | > 100 µM (inactive) | > 100 µM (inactive) | > 100 µM (inactive) | > 100 µM (inactive) | > 100 µM (inactive) | > 100 µM (inactive) | > 100 µM (inactive) | > 100 µM (inactive) | > 100 µM (inactive) | > 100 µM (inactive) | > 100 µM (inactive) | > 100 µM (inactive) | > 100 µM (inactive) | > 100 µM (inactive) | > 100 µM (inactive) | > 100 µM (inactive) | > 100 µM (inactive) |  |  | 
CC(=O)NC1C(OCc2ccccc2)OC(CO)C(O)C1OCC(=O)N[C@@H](C)C(=O)N[C@H](CCC(=O)NCCCCNc1c2ccccc2nc2cccc([N+](=O)[O-])c12)C(N)=O (some centres not stated) | 0.998 µM (active) | 0.748 µM (active) | 0.771 µM (active) | 1.62 µM (inactive) | 1.64 µM (inactive) | 1.6 µM (inactive) | 1.55 µM (inactive) | 3.88 µM (inactive) | 0.731 µM (active) | 2.51 µM (inactive) | 0.516 µM (active) | 7.59 µM (inactive) | 2.25 µM (inactive) | 1.79 µM (inactive) | 1.61 µM (inactive) | 1.51 µM (inactive) | 2.43 µM (inactive) | 0.684 µM (active) | 0.804 µM (active) | 
COc1c(C)c(OC)c(C(=O)CC(C)C)c(OC)c1C | > 100 µM (inactive) | > 100 µM (inactive) | > 100 µM (inactive) | > 100 µM (inactive) | > 100 µM (inactive) | 43.7 µM (inactive) | > 100 µM (inactive) | > 100 µM (inactive) | > 100 µM (inactive) | > 100 µM (inactive) | 40.3 µM (inactive) | > 100 µM (inactive) | > 100 µM (inactive) |  | 68.1 µM (inactive) | > 100 µM (inactive) | 49.9 µM (inactive) | > 100 µM (inactive) | > 100 µM (inactive) | 7.01 µM (inactive)
CN(C)CCCn1c(Cn2nc3ccccc3n2)nc2cc(C(F)(F)F)ccc21 | 19.3 µM (inactive) | 8.71 µM (inactive) | 22 µM (inactive) | 16.5 µM (inactive) | 18.8 µM (inactive) | 19.1 µM (inactive) | 30.4 µM (inactive) | 44.1 µM (inactive) |  | 19.4 µM (inactive) | 16.6 µM (inactive) | 16.9 µM (inactive) | 47.8 µM (inactive) |  | 15.2 µM (inactive) | 19.2 µM (inactive) | 10.5 µM (inactive) | 15.3 µM (inactive) | 29 µM (inactive) | 1.69 µM (inactive)
C=C1CN(C2=NCCO2)C1 | > 100 µM (inactive) | > 100 µM (inactive) | > 100 µM (inactive) | > 100 µM (inactive) | > 100 µM (inactive) | > 100 µM (inactive) | > 100 µM (inactive) | > 100 µM (inactive) | > 100 µM (inactive) | > 100 µM (inactive) | > 100 µM (inactive) |  | > 100 µM (inactive) | > 100 µM (inactive) | > 100 µM (inactive) | > 100 µM (inactive) | > 100 µM (inactive) | > 100 µM (inactive) | > 100 µM (inactive) | > 100 µM (inactive)
CCOC(CBr)OC1C(=O)OCC1(C)C (configuration not stated) | > 100 µM (inactive) | > 100 µM (inactive) | > 100 µM (inactive) | > 100 µM (inactive) | > 100 µM (inactive) | > 100 µM (inactive) | > 100 µM (inactive) | > 100 µM (inactive) |  | > 100 µM (inactive) | > 100 µM (inactive) | > 100 µM (inactive) | > 100 µM (inactive) | > 100 µM (inactive) | > 100 µM (inactive) | > 100 µM (inactive) | > 100 µM (inactive) | > 100 µM (inactive) | > 100 µM (inactive) | > 100 µM (inactive)
CN(C(=O)c1cc2c(s1)sc1c(=O)n(C)c3ccccc3c12)c1ccccc1 | 5.27 µM (inactive) | 42.4 µM (inactive) | 0.501 µM (active) | 0.828 µM (active) | 0.61 µM (active) | 3.63 µM (inactive) | 11.2 µM (inactive) | 2.25 µM (inactive) | 5.45 µM (inactive) | 3.77 µM (inactive) | 3.56 µM (inactive) | 22.2 µM (inactive) | 34.8 µM (inactive) | 4.33 µM (inactive) | 28.8 µM (inactive) | 6.03 µM (inactive) | 6.7 µM (inactive) | > 100 µM (inactive) | 4.37 µM (inactive) | 
COP(C)(=O)C(Cc1c[nH]c2ccccc12)NC(=O)OCc1ccccc1 (configuration not stated) | > 100 µM (inactive) | > 100 µM (inactive) | > 100 µM (inactive) | > 100 µM (inactive) | > 100 µM (inactive) | > 100 µM (inactive) | > 100 µM (inactive) | > 100 µM (inactive) | > 100 µM (inactive) | > 100 µM (inactive) | > 100 µM (inactive) | > 100 µM (inactive) | > 100 µM (inactive) |  | > 100 µM (inactive) | > 100 µM (inactive) | > 100 µM (inactive) | > 100 µM (inactive) | > 100 µM (inactive) | > 100 µM (inactive)
Cn1c(N)nc2c(nc(OCc3ccccc3)n2C2OC(CO)C(O)C2O)c1=O (configuration not stated) | > 100 µM (inactive) | > 100 µM (inactive) | > 100 µM (inactive) | > 100 µM (inactive) | > 100 µM (inactive) | 71.8 µM (inactive) | > 100 µM (inactive) | > 100 µM (inactive) |  | > 100 µM (inactive) | > 100 µM (inactive) | > 100 µM (inactive) | > 100 µM (inactive) | > 100 µM (inactive) | > 100 µM (inactive) | > 100 µM (inactive) | > 100 µM (inactive) | > 100 µM (inactive) | > 100 µM (inactive) | > 100 µM (inactive)
CC(NC(=O)C(C)(C)NC(=O)C(CC(=O)OCc1ccccc1)NC(=O)OCc1ccccc1)C(N)=O (configuration not stated) (Cbz-Asp(OBn)-[Aib]-Ala-NH2; configuration not given here) | > 100 µM (inactive) | > 100 µM (inactive) | > 100 µM (inactive) | > 100 µM (inactive) | > 100 µM (inactive) | > 100 µM (inactive) | > 100 µM (inactive) | 43 µM (inactive) | > 100 µM (inactive) | > 100 µM (inactive) | > 100 µM (inactive) | > 100 µM (inactive) | > 100 µM (inactive) |  | > 100 µM (inactive) | > 100 µM (inactive) | > 100 µM (inactive) | > 100 µM (inactive) | > 100 µM (inactive) | > 100 µM (inactive)
CCN1C[C@]2(C)CC[C@H](OCc3ccccc3)C34C5C[C@@H]6CC[C@](O)(C(C[C@@H]32)C14)C5[C@H]6OCc1ccccc1 (some centres not stated) | > 100 µM (inactive) | > 100 µM (inactive) | 7.01 µM (inactive) | 90.8 µM (inactive) | 75.5 µM (inactive) | 16.7 µM (inactive) | 93.8 µM (inactive) | > 100 µM (inactive) | > 100 µM (inactive) | 83.9 µM (inactive) | 51.3 µM (inactive) | > 100 µM (inactive) | > 100 µM (inactive) | 49 µM (inactive) | 56.1 µM (inactive) | > 100 µM (inactive) | 73.1 µM (inactive) | 42 µM (inactive) | 92.3 µM (inactive) | 
CNc1nc2n(CCO)c(-c3ccccc3)c(-c3ccccc3)nc-2c(=O)n1 | > 50 µM (inactive) | > 50 µM (inactive) | > 50 µM (inactive) | > 50 µM (inactive) | > 50 µM (inactive) | > 50 µM (inactive) | > 50 µM (inactive) | > 50 µM (inactive) | > 50 µM (inactive) | > 50 µM (inactive) | > 50 µM (inactive) | > 50 µM (inactive) | > 50 µM (inactive) | > 50 µM (inactive) | > 50 µM (inactive) | > 50 µM (inactive) | > 50 µM (inactive) | > 50 µM (inactive) | > 50 µM (inactive) | 
CNC(=O)c1ccccc1-[s+]1c2ccccc2c(=O)n1C (configuration not stated) | > 100 µM (inactive) | > 100 µM (inactive) | > 100 µM (inactive) | > 100 µM (inactive) | > 100 µM (inactive) | > 100 µM (inactive) | > 100 µM (inactive) | > 100 µM (inactive) | > 100 µM (inactive) | > 100 µM (inactive) | > 100 µM (inactive) |  | > 100 µM (inactive) |  | > 100 µM (inactive) | > 100 µM (inactive) | > 100 µM (inactive) | > 100 µM (inactive) | > 100 µM (inactive) | > 100 µM (inactive)
COC(=O)C#CC1(O)C=CC(=O)C=C1 | 0.483 µM (active) | 0.891 µM (active) | 0.352 µM (active) | 0.436 µM (active) | 1.18 µM (inactive) | 0.0933 µM (active) | 0.203 µM (active) | 8.69 µM (inactive) | 1.12 µM (active) | 2.36 µM (inactive) | 1.72 µM (inactive) | 28 µM (inactive) | 0.789 µM (active) | 3.9 µM (inactive) | 0.583 µM (active) | 0.865 µM (active) | 0.889 µM (active) | 2.41 µM (inactive) | 0.508 µM (active) | 
